# Measured values taken from patent publication US9056876B2, “Substituted 1H-pyrazolo[3′,4′,4,5]thieno[2,3-b]pyridin-3-amine analogs as positive allosteric modulators of the muscarinic acetylcholine receptor M4” (VANDERBILT UNIVERSITY, priority 2011, dated 2015).
# Biological target: T1, mAChR M4 (UniProt P08173)
# T1 construct: hM1 and hM4 cDNAs were purchased from Missouri S&T cDNA Resource
# T1 sequence (P08173 1-479): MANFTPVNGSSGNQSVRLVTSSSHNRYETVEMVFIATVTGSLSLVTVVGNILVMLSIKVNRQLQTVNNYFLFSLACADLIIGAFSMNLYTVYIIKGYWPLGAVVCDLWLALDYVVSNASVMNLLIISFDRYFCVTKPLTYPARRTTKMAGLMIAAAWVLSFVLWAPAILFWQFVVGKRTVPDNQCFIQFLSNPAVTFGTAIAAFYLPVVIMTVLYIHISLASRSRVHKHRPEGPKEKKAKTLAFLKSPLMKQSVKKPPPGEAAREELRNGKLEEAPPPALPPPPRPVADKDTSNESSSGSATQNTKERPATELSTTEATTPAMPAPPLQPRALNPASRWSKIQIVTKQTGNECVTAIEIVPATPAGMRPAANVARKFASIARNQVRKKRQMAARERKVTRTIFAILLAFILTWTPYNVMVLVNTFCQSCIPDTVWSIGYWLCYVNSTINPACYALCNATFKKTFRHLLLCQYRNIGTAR
# Assay: mAChR M4 cell-based functional assay (calcium mobilization, Fluo-4, FDSS)
# Settings: for Emax (%)*: % ACh maximum at 30 μM; for pEC50: positive allosteric modulator activity, EC20 acetylcholine response; for pEC50 / EC50: CHO-K1 cells; for EC50: positive allosteric modulator activity: concentration-dependent increase in the EC20 acetylcholine response, >10 μM estimated for low potency (no plateau)
# Method in brief: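 Compound responses (11-point, 1:3 series) were followed as calcium fluorescence ratio on FDSS in Gqi5-coupled M4 CHO-K1 cells (human or rat) loaded with Fluo-4. Acetylcholine followed at EC20 (144 s) then EC80 (230 s). EC50/Emax from four-parameter logistic fits of direct, EC20-potentiating or EC80-inhibiting effects.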
Compound,Emax (%)*,pEC50,EC50
"Cc1cc(C)c2c(n1)sc1c(N)nn(C)c12 [Compound 29, 1,6,8-trimethyl-1H-pyrazolo[3′,4′:4,5]thieno[2,3-b]pyridin-3-amine]",49%,<5.00,> 10 µM
"COc1ccc(Cn2nc(N(C)C)c3sc4nc(C)cc(C)c4c32)cc1 [Compound 155, 1-(4-methoxybenzyl)-N,N,6,8-tetramethyl-1H-pyrazolo[3′,4′:4,5]thieno[2,3-b]pyridin-3-amine]",,<5.00,> 10 µM
"Cc1ccc2c(n1)sc1c(NC(=O)c3ccc(Br)cc3)n[nH]c12 [Compound 151, 4-bromo-N-(6-methyl-1H-pyrazolo[3′,4′:4,5]thieno[2,3-b]pyridin-3-yl)benzamide]",,<5.00,> 10 µM
"Cc1cc(C)c2c(n1)sc1c(NC(=O)c3ccc(F)cc3)nn(C)c12 [Compound 154, 4-fluoro-N-(1,6,8-trimethyl-1H-pyrazolo[3′,4′:4,5]thieno[2,3-b]pyridin-3-yl)benzamide]",,<5.00,> 10 µM
"Cc1nc2sc3c(NCc4cccs4)nn(C)c3c2c(C)c1Cl [Compound 26, 7-chloro-1,6,8-trimethyl-N-(thiophen-2-ylmethyl)-1H-pyrazolo[3′,4′:4,5]thieno[2,3-b]pyridin-3-amine]",42%,<5.00,> 10 µM
"Cc1nc2sc3c(NCCC(C)C)n[nH]c3c2c(C)c1Cl [Compound 140, 7-chloro-N-isopentyl-6,8-dimethyl-1H-pyrazolo[3′,4′:4,5]thieno[2,3-b]pyridin-3-amine]",,<5.00,> 10 µM
"CCOC(=O)CNc1n[nH]c2c1sc1nc(C)cc(C)c12 [Compound 111, ethyl 2-((6,8-dimethyl-1H-pyrazolo[3′,4′:4,5]thieno[2,3-b]pyridin-3-yl)amino)acetate]",50%,<5.00,> 10 µM
"COc1ccc(CNc2n[nH]c3c2sc2nc(C)c(Cl)c(C)c23)cc1 [Compound 143, 7-chloro-N-(4-methoxybenzyl)-6,8-dimethyl-1H-pyrazolo[3′,4′:4,5]thieno[2,3-b]pyridin-3-amine]",,<5.00,> 10 µM
"Cc1nc2sc3c(NCc4ccccc4F)n[nH]c3c2c(C)c1Cl [Compound 147, 7-chloro-N-(2-fluorobenzyl)-6,8-dimethyl-1H-pyrazolo[3′,4′:4,5]thieno[2,3-b]pyridin-3-amine]",,<5.00,> 10 µM
"Cc1ccc2c(n1)sc1c(NCC3CC3)n[nH]c12 [Compound 43, N-(cyclopropylmethyl)-6-methyl-1H-pyrazolo[3′,4′:4,5]thieno[2,3-b]pyridin-3-amine]",64%,5.35,4.5 µM
"CCCn1nc(NCc2ccc(S(C)(=O)=O)cc2)c2sc3nc(C)cc(C)c3c21 [Compound 120, 6,8-dimethyl-N-(4-(methylsulfonyl)benzyl)-1-propyl-1H-pyrazolo[3′,4′:4,5]thieno[2,3-b]pyridin-3-amine]",59%,<5.00,> 10 µM
"Cc1ccnc2sc3c(NCC4CC4)nn(C)c3c12 [Compound 160, N-(cyclopropylmethyl)-1,8-dimethyl-1H-pyrazolo[3′,4′:4,5]thieno[2,3-b]pyridin-3-amine]",,<5.00,> 10 µM
"Cc1cc(C)c2c(n1)sc1c(NC(=O)c3ccccc3)n[nH]c12 [Compound 130, N-(6,8-dimethyl-1H-pyrazolo[3′,4′:4,5]thieno[2,3-b]pyridin-3-yl)benzamide]",,<5.00,> 10 µM
"Cc1ccc2c(n1)sc1c(N)n[nH]c12 [Compound 149, 6-methyl-1H-pyrazolo[3′,4′:4,5]thieno[2,3-b]pyridin-3-amine]",,<5.00,> 10 µM
"COCCn1nc(NCc2ccc(OC)cc2)c2sc3nc(C)cc(C)c3c21 [Compound 118, N-(4-methoxybenzyl)-1-(2-methoxyethyl)-6,8-dimethyl-1H-pyrazolo[3′,4′:4,5]thieno[2,3-b]pyridin-3-amine]",60%,<5.00,> 10 µM

# Now those with a lower EC50, led by results:
Emax (%)*,pEC50,EC50,Compound
53%,7.42,0.038 µM,"Cc1cc(C)c2c(n1)sc1c(NCc3scnc3C)nn(C)c12 [Compound 93, 1,6,8-trimethyl-N-((4-methylthiazol-5-yl)methyl)-1H-pyrazolo[3′,4′:4,5]thieno[2,3-b]pyridin-3-amine]"
73%,6.60,0.25 µM,"Cc1cc(C)c2c(n1)sc1c(NCc3ccc(S(C)(=O)=O)cc3)nn(C)c12 [Compound 75, 1,6,8-trimethyl-N-(4-(methylsulfonyl)benzyl)-1H-pyrazolo[3′,4′:4,5]thieno[2,3-b]pyridin-3-amine]"
73%,7.31,0.049 µM,"Cc1cc(C)c2c(n1)sc1c(NCc3cccs3)nn(CCO)c12 [Compound 101, 2-(6,8-dimethyl-3-((thiophen-2-ylmethyl)amino)-1H-pyrazolo[3′,4′:4,5]thieno[2,3-b]pyridin-1-yl)ethanol]"
68%,6.30,0.5 µM,"Cc1cc(C)c2c(n1)sc1c(NCc3ccc(F)cc3)nn(C)c12 [Compound 39, N-(4-fluorobenzyl)-1,6,8-trimethyl-1H-pyrazolo[3′,4′:4,5]thieno[2,3-b]pyridin-3-amine]"
69%,5.72,1.9 µM,"Cc1cc(C)c2c(n1)sc1c(NC3CCOCC3)nn(CCO)c12 [Compound 115, 2-(6,8-dimethyl-3-((tetrahydro-2H-pyran-4-yl)amino)-1H-pyrazolo[3′,4′:4,5]thieno[2,3-b]pyridin-1-yl)ethanol]"
53%,6.28,0.52 µM,"Cc1csc(CNc2nn(C)c3c2sc2nc(C)cc(C)c23)n1 [Compound 98, 1,6,8-trimethyl-N-((4-methylthiazol-2-yl)methyl)-1H-pyrazolo[3′,4′:4,5]thieno[2,3-b]pyridin-3-amine]"
50%,6.37,0.43 µM,"Cc1cc(C)c2c(n1)sc1c(NCc3[nH]cnc3C)nn(C)c12 [Compound 92, 1,6,8-trimethyl-N-((4-methyl-1H-imidazol-5-yl)methyl)-1H-pyrazolo[3′,4′:4,5]thieno[2,3-b]pyridin-3-amine]"
58%,5.97,1.07 µM,"Cc1cc(C)c2c(n1)sc1c(NCc3ccccc3)n[nH]c12 [Compound 5, N-benzyl-6,8-dimethyl-1H-pyrazolo[3′,4′:4,5]thieno[2,3-b]pyridin-3-amine]"
75%,6.89,0.13 µM,"Cc1cc(C)c2c(n1)sc1c(NCc3ccccc3)nn(C)c12 [Compound 33, N-benzyl-1,6,8-trimethyl-1H-pyrazolo[3′,4′:4,5]thieno[2,3-b]pyridin-3-amine]"
57%,6.66,0.22 µM,"Cc1nc2sc3c(NCc4ccco4)nn(C)c3c2c(C)c1Cl [Compound 25, 7-chloro-N-(furan-2-ylmethyl)-1,6,8-trimethyl-1H-pyrazolo[3′,4′:4,5]thieno[2,3-b]pyridin-3-amine]"
83%,6.85,0.14 µM,"Cc1cc(C)c2c(n1)sc1c(NC3CCCC3)nn(C)c12 [Compound 64, N-cyclopentyl-1,6,8-trimethyl-1H-pyrazolo[3′,4′:4,5]thieno[2,3-b]pyridin-3-amine]"
77%,5.89,1.3 µM,"Cc1ccnc2sc3c(NCC4CC4)nn(C)c3c12 [Compound 69, N-(cyclopropylmethyl)-1,8-dimethyl-1H-pyrazolo[3′,4′:4,5]thieno[2,3-b]pyridin-3-amine]"
65%,5.92,1.2 µM,"COCCn1nc(NCc2ccc(S(C)(=O)=O)cc2)c2sc3nc(C)cc(C)c3c21 [Compound 119, 1-(2-methoxyethyl)-6,8-dimethyl-N-(4-(methylsulfonyl)benzyl)-1H-pyrazolo[3′,4′:4,5]thieno[2,3-b]pyridin-3-amine]"
68%,6.70,0.2 µM,"Cc1cc(C)c2c(n1)sc1c(NC3CCSC3)nn(CCO)c12 (stereo not drawn) [Compound 109, 2-(6,8-dimethyl-3-((tetrahydrothiophen-3-yl)amino)-1H-pyrazolo[3′,4′:4,5]thieno[2,3-b]pyridin-1-yl)ethanol]"
55%,6.27,0.54 µM,"Cc1cc(C)c2c(n1)sc1c(NCc3ccccn3)nn(C)c12 [Compound 77, 1,6,8-trimethyl-N-(pyridin-2-ylmethyl)-1H-pyrazolo[3′,4′:4,5]thieno[2,3-b]pyridin-3-amine]"
